Literature values in patent US10792481B2, “Implantable drug delivery device” (Nano Precision Medical, Inc., priority 2014, dated 2020).

Conditions: 37° C., 0.2 atmosphere partial pressure

solubility of oxygen in water: about 7 mg/liter
Structure (SMILES): O=O [oxygen]
